Paper PMC10826971, “Evaluating protein cross-linking as a therapeutic strategy to stabilize SOD1 variants in a mouse model of familial ALS” (PLOS Biology, 2024)
“Also recorded” adds a separate entry of the source.

Tested on: B6 G93A mice
Test: Survival study, congenic B6 G93A/YFP mice, S-XL6 50 mg/kg SC on weekdays from day 108
Type: in vivo, mouse
Set-up: Dosed remained: unit not given here
From the text: Two fALS lines were used to assess survival in genetic backgrounds with different disease severity. […] Dose and dose regimen were estimated from the blood PK/PD profile and BBB penetration described above. A subcutaneous (SC) route of administration was chosen because in our hands it results in more precise delivery. […] In both studies, mice were gender and littermate matched and non ALS-related deaths were excluded. We are currently developing the methods necessary for quantifying copy number and cannot rule out reduced SOD1 expression as having contributed to the survival benefit in treated B6 G93A mice.
The first line was derived by crossing (over >10 generations) congenic fALS “B6 G93A mice” (B6.Cg-Tg(SOD1*G93A)1Gur/J, Stock No. 004435, The Jackson Laboratory, Bar Harbor, Maine, USA) with “YFP-16 mice” [50] (B6.Cg-Tg(Thy1-YFP)16Jrs/J, Stock No. 003709, The Jackson Laboratory, Bar Harbor, Maine, USA). This line maintains the C57BL/6J genetic background and expresses YFP in motor and sensory neurons to enable cellular-level molecular profiling in future studies. The second line is the standard “Hybrid B6SJL G93A mice” (B6SJL-Tg(SOD1*G93A)1Gur/J Stock No. 002726, The Jackson Laboratory, Bar Harbor, Maine, USA). Methods for survival studies have been described and followed the conventions for optimal trial design with fALS mice. Mice were tested for difference in: (1) disease onset (at least a 20% decrease in grip strength and open-field motor performance, which we expect to correlate with change in weight); (2) disease end-stage (disease score, e.g., loss of righting reflex); and (3) weight. The hybrid line was additionally tested for differences in forelimb and hindlimb grip strength.

For `[O-][S+]1CCCCS1` (stereo not shown) [S-XL6, 1,2-dithiane-1-oxide], the survival benefit (50 mg/kg SC from day 108) was “modest survival benefit; also recorded: modest survival improvement”, the “clinical signs immediately after dosing” value (SC dosing) was “lethargy and shaking that subsided after 20 min” and the Dosed remained (day 0) was 100. For the same compound, the Dosed remained (day 125) was 100, the Dosed remained (day 125.999) was 100 and the Dosed remained (day 127.999) was 100. For the same compound, the Dosed remained (day 128) was 100, the Dosed remained (day 128.999) was 100 and the Dosed remained (day 129) was 100. For the same compound, the Dosed remained (day 129.999) was 100, the Dosed remained (day 130) was 100 and the Dosed remained (day 130.999) was 100. The Dosed remained (day 131) was 100, the Dosed remained (day 131.999) was 100 and the Dosed remained (day 132) was 100. For the same compound, the Dosed remained (day 132.999) was 100, the Dosed remained (day 133) was 100 and the Dosed remained (day 133.999) was 100. It also gave a Dosed remained (day 134) of 100, a Dosed remained (day 134.999) of 100 and a Dosed remained (day 135) of 100. It also gave a Dosed remained (day 135.999) of 100, a Dosed remained (day 136) of 100 and a Dosed remained (day 136.999) of 100. For the same compound, the Dosed remained (day 137) was 100, the Dosed remained (day 137.999) was 100 and the Dosed remained (day 138) was 100. It also gave a Dosed remained (day 138.999) of 100, a Dosed remained (day 139) of 100 and a Dosed remained (day 139.999) of 100. For the same compound, the Dosed remained (day 140) was 100, the Dosed remained (day 140.999) was 100 and the Dosed remained (day 141) was 100. It also gave a Dosed remained (day 141.999) of 100, a Dosed remained (day 142) of 100 and a Dosed remained (day 142.999) of 100. It also gave a Dosed remained (day 143) of 100, a Dosed remained (day 143.999) of 100 and a Dosed remained (day 144) of 100. The Dosed remained (day 144.999) was 100, the Dosed remained (day 145) was 100 and the Dosed remained (day 145.999) was 100. For the same compound, the Dosed remained (day 146) was 100, the Dosed remained (day 146.999) was 100 and the Dosed remained (day 147) was 100. It also gave a Dosed remained (day 147.999) of 100, a Dosed remained (day 148) of 100 and a Dosed remained (day 148.999) of 100. For the same compound, the Dosed remained (day 149) was 100, the Dosed remained (day 149.999) was 100 and the Dosed remained (day 150) was 100. The Dosed remained (day 150.999) was 100, the Dosed remained (day 151) was 100 and the Dosed remained (day 151.999) was 100. For the same compound, the Dosed remained (day 152) was 100, the Dosed remained (day 152.999) was 100 and the Dosed remained (day 153) was 100. For the same compound, the Dosed remained (day 153.999) was 100, the Dosed remained (day 154) was 100 and the Dosed remained (day 154.999) was 100. For the same compound, the Dosed remained (day 155) was 100, the Dosed remained (day 155.999) was 100 and the Dosed remained (day 156) was 100. The Dosed remained (day 156.999) was 100, the Dosed remained (day 157) was 70 and the Dosed remained (day 172.999) was 30. It also gave a Dosed remained (day 173) of 30, a Dosed remained (day 173.999) of 30 and a Dosed remained (day 174) of 30. It also gave a Dosed remained (day 174.999) of 30, a Dosed remained (day 175) of 30 and a Dosed remained (day 175.999) of 30. It also gave a Dosed remained (day 176) of 30, a Dosed remained (day 176.999) of 30 and a Dosed remained (day 177) of 30. The Dosed remained (day 177.999) was 30, the Dosed remained (day 178) was 20 and the Dosed remained (day 178.999) was 20. For the same compound, the Dosed remained (day 179) was 20, the Dosed remained (day 179.999) was 20 and the Dosed remained (day 180) was 20. It also gave a Dosed remained (day 180.999) of 20, a Dosed remained (day 181) of 20 and a Dosed remained (day 181.999) of 20. The Dosed remained (day 182) was 20, the Dosed remained (day 182.999) was 20 and the Dosed remained (day 183) was 20. It also gave a Dosed remained (day 183.999) of 20, a Dosed remained (day 184) of 20 and a Dosed remained (day 184.999) of 20. The Dosed remained (day 185) was 10, the Dosed remained (day 185.999) was 10 and the Dosed remained (day 186) was 10. The Dosed remained (day 186.999) was 10, the Dosed remained (day 187) was 10 and the Dosed remained (day 187.999) was 10. It also gave a Dosed remained (day 188) of 10, a Dosed remained (day 188.999) of 10 and a Dosed remained (day 189) of 10. It also gave a Dosed remained (day 189.999) of 10, a Dosed remained (day 190) of 0 and a Dosed remained (day 190.999) of 0. The survival (dosed, mean +/− STD, control 153 +/− 15 days) was 169 ± 11 days.
